According to the supplement of paper PMC7287046:

Assays:
Details in all cases: exposure time: 72 h
AM-38 [1] = assay: HSA synergy score (Combenefit); higher = more synergy
Experimental: (§1)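 The same 6x6 dose matrices of drug pairs on glioma cell lines (72 h, CellTiter-Glo viability normalised to DMSO, triplicate) were scored with Combenefit. The Loewe, Bliss and HSA synergy scores are given; paper thresholds are Loewe 7.8 and Bliss 2.5.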

KNS-42 [2] = assay: as above
Experimental: as §1

SF268 [3] = assay: as above
Experimental: as §1

SF539 [4] = assay: as above
Experimental: as §1

SNB75 [5] = assay: as above
Experimental: as §1

T98G [6] = assay: as above
Experimental: as §1

U118 [7] = assay: as above
Experimental: as §1

U251 [8] = assay: as above
Experimental: as §1

U87 [9] = assay: as above
Experimental: as §1

AM38 = assay: Chou-Talalay combination index (dimensionless); higher = less synergy (more antagonism)
Experimental: (§2)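 Glioma cell lines were treated for 72 h with a 6x6 matrix of two drugs, each in twofold dilutions with the top dose at the single-drug IC50. Viability was read by CellTiter-Glo and normalised to DMSO controls, in triplicate. The Chou-Talalay combination index was computed by the median effect principle; CI < 0.8 means synergy.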

KNS42 = assay: as above
Experimental: as §2

SF268 [10] = assay: as above
Experimental: as §2

SF539 [11] = assay: as above
Experimental: as §2

SNB75 [12] = assay: as above
Experimental: as §2

T98 = assay: as above
Experimental: as §2

U118 [13] = assay: as above
Experimental: as §2

U251 [14] = assay: as above
Experimental: as §2

U87 [15] = assay: as above
Experimental: as §2

AM-38 [16] = assay: Bliss synergy score (Combenefit); higher = more synergy; extreme values may be limits of the assay
Experimental: as §1

KNS-42 [17] = assay: as above
Experimental: as §1

SF268 [18] = assay: as above
Experimental: as §1

SF539 [19] = assay: as above
Experimental: as §1

SNB75 [20] = assay: as above
Experimental: as §1

T98G [21] = assay: as above
Experimental: as §1

U118 [22] = assay: as above
Experimental: as §1

U251 [23] = assay: as above
Experimental: as §1

U87 [24] = assay: as above
Experimental: as §1

AM-38 [25] = assay: Loewe synergy score (Combenefit); higher = more synergy; extreme values may be limits of the assay
Experimental: as §1

KNS-42 [26] = assay: as above
Experimental: as §1

SF268 [27] = assay: as above
Experimental: as §1

SF539 [28] = assay: as above
Experimental: as §1

SNB75 [29] = assay: as above
Experimental: as §1

T98G [30] = assay: as above
Experimental: as §1

U118 [31] = assay: as above
Experimental: as §1

U251 [32] = assay: as above
Experimental: as §1

U87 [33] = assay: as above
Experimental: as §1

SMILES | HSA synergy score (AM-38 [1]) | HSA synergy score (KNS-42 [2]) | HSA synergy score (SF268 [3]) | HSA synergy score (SF539 [4]) | HSA synergy score (SNB75 [5]) | HSA synergy score (T98G [6]) | HSA synergy score (U118 [7]) | HSA synergy score (U251 [8]) | HSA synergy score (U87 [9]) | Chou-Talalay combination index (AM38) | Chou-Talalay combination index (KNS42) | Chou-Talalay combination index (SF268 [10]) | Chou-Talalay combination index (SF539 [11]) | Chou-Talalay combination index (SNB75 [12]) | Chou-Talalay combination index (T98) | Chou-Talalay combination index (U118 [13]) | Chou-Talalay combination index (U251 [14]) | Chou-Talalay combination index (U87 [15]) | Bliss synergy score (AM-38 [16]) | Bliss synergy score (KNS-42 [17]) | Bliss synergy score (SF268 [18]) | Bliss synergy score (SF539 [19]) | Bliss synergy score (SNB75 [20]) | Bliss synergy score (T98G [21]) | Bliss synergy score (U118 [22]) | Bliss synergy score (U251 [23]) | Bliss synergy score (U87 [24]) | Loewe synergy score (AM-38 [25]) | Loewe synergy score (KNS-42 [26]) | Loewe synergy score (SF268 [27]) | Loewe synergy score (SF539 [28]) | Loewe synergy score (SNB75 [29]) | Loewe synergy score (T98G [30]) | Loewe synergy score (U118 [31]) | Loewe synergy score (U251 [32]) | Loewe synergy score (U87 [33])
CC(=O)O[C@@]12CO[C@@H]1C[C@H](O)[C@@]1(C)C(=O)[C@H](O)C3=C(C)[C@@H](OC(=O)[C@H](O)[C@@H](NC(=O)OC(C)(C)C)c4ccccc4)C[C@@](O)([C@@H](OC(=O)c4ccccc4)[C@H]21)C3(C)C [Docetaxel] + C#Cc1cccc(Nc2ncnc3cc(OCCOC)c(OCCOC)cc23)c1 [Erlotinib] | 0 | 7.84 | 9.27 | 2.49 | 5.52 | 9.15 | 6.82 | 5.05 | 3.14 | 0.962 | 0.834 | 0.934 | 0.998 | 0.781 | 0.713 | 0.956 | 0.678 | 1.1 | 0 | 2.96 | 0.0561 | 0 | 4.1 | 0.0594 | 0.59 | 2.48 | 0 | 0 | 7.84 | 5.33 | 1.4 | 5.52 | 8.54 | 0.504 | 5.05 | 0.182
CC(=O)O[C@@]12CO[C@@H]1C[C@H](O)[C@@]1(C)C(=O)[C@H](O)C3=C(C)[C@@H](OC(=O)[C@H](O)[C@@H](NC(=O)OC(C)(C)C)c4ccccc4)C[C@@](O)([C@@H](OC(=O)c4ccccc4)[C@H]21)C3(C)C [Docetaxel] + CCC(=O)N1CCN(c2ccc(-n3c(=O)ccc4cnc5ccc(-c6cnc7ccccc7c6)cc5c43)cc2C(F)(F)F)CC1 [Torin1] | 9.71 | 14.4 | 12.8 | 2.76 | 3.38 | 9.53 | 4.14 | 6.14 | 28.7 | 0.895 | 0.95 | 0.8 | 0.976 | 0.749 | 0.53 | 0.949 | 0.732 | 0.448 | 0 | 0.0301 | 2.06 | 0 | 0.14 | 0.32 | 0.102 | 0.704 | 14 | 3.28 | 10.2 | 6.57 | 2.76 | 1.3 | 8.3 | 1.75 | 5.9 | 20.6
CC(=O)O[C@@]12CO[C@@H]1C[C@H](O)[C@@]1(C)C(=O)[C@H](O)C3=C(C)[C@@H](OC(=O)[C@H](O)[C@@H](NC(=O)OC(C)(C)C)c4ccccc4)C[C@@](O)([C@@H](OC(=O)c4ccccc4)[C@H]21)C3(C)C [Docetaxel] + CCCCCCCCCCCC1=C(O)C(=O)C=C(O)C1=O [Embelin] | 1.16 | 6.6 | 1.82 | 3.01 | 3.76 | 2.71 | 0.358 | 9.62 | 0.7 | 1.08 | 0.349 | 1.01 | 0.835 | 0.849 | 0.911 | 0.982 | 0.659 | 0.827 | 0 | 3.74 | 0.0571 | 0.24 | 0.144 | 0.71 | 0.219 | 3.66 | 0.7 | 0.74 | 3.76 | 0 | 2.91 | 0.195 | 2.71 | 0.129 | 0.944 | 0.7
CC(=O)O[C@@]12CO[C@@H]1C[C@H](O)[C@@]1(C)C(=O)[C@H](O)C3=C(C)[C@@H](OC(=O)[C@H](O)[C@@H](NC(=O)OC(C)(C)C)c4ccccc4)C[C@@](O)([C@@H](OC(=O)c4ccccc4)[C@H]21)C3(C)C [Docetaxel] + N#CC(c1ccnc(NCCc2cccnc2)n1)c1nc2ccccc2s1 [AS601245] | 0.465 | 11.3 | 4.46 | 7.49 | 10.1 | 13 | 2.85 | 8.45 | 1.81 | 1.13 | 0.832 | 0.887 | 0.69 | 0.738 | 0.553 | 0.875 | 0.673 | 0.00672 | 0.0376 | 3.75 | 0.207 | 0.511 | 2.39 | 4.9 | 0.0703 | 5.06 | 0.347 | 0.0158 | 3.02 | 0.451 | 2.08 | 5.22 | 10.3 | 0.96 | 0.486 | 0.835
CC(=O)O[C@@]12CO[C@@H]1C[C@H](O)[C@@]1(C)C(=O)[C@H](O)C3=C(C)[C@@H](OC(=O)[C@H](O)[C@@H](NC(=O)OC(C)(C)C)c4ccccc4)C[C@@](O)([C@@H](OC(=O)c4ccccc4)[C@H]21)C3(C)C [Docetaxel] + O=c1[nH]c2ccccc2n1C1CCN(Cc2ccc(-c3[nH]c4cc5ncnc5cc4nc3-c3ccccc3)cc2)CC1 [Akt inhibitor VIII] | 11 | 15.2 | 11.6 | 2.57 | 6.81 | 0 | 8.23 | 0.629 | 4.37 | 0.894 | 0.838 | 0.885 | 0.939 | 0.796 | 0.84 | 0.9 | 0.933 | 0.625 | 0.132 | 1.6 | 1.32 | 0.217 | 0.989 | 0 | 5.46 | 0.156 | 1.56 | 5.53 | 10.8 | 3.03 | 1.09 | 0.96 | 0 | 3.76 | 0 | 2.83
CCCCCCCCCCCC1=C(O)C(=O)C=C(O)C1=O [Embelin] + N#CC(c1ccnc(NCCc2cccnc2)n1)c1nc2ccccc2s1 [AS601245] | 1.14 | 12.6 | 5.6 | 1.24 | 2.04 | 11.9 | 4.61 | 1.11 | 10.3 | 0.867 | 0.78 | 0.923 | 0.84 | 0.365 | 0.365 | 0.639 | 0.88 | 0.0258 | 0.346 | 7.8 | 1.91 | 0.103 | 0.833 | 6.12 | 2.98 | 1.11 | 9.51 | 0 | 2.73 | 0.00767 | 0.787 | 0.557 | 6.59 | 4.39 | 1.11 | 0.927
CCCCCCCCCCCC1=C(O)C(=O)C=C(O)C1=O [Embelin] + O=c1[nH]c2ccccc2n1C1CCN(Cc2ccc(-c3[nH]c4cc5ncnc5cc4nc3-c3ccccc3)cc2)CC1 [Akt inhibitor VIII] | 2.45 | 21.8 | 6.9 | 2.02 | 5.56 | 5.06 | 2.72 | 0.813 | 3.6 | 0.773 | 0.589 | 0.946 | 1.03 | 0.773 | 0.226 | 0.946 | 0.839 | 0.641 | 1.12 | 10.1 | 2.64 | 0.0542 | 1.95 | 1.2 | 1.02 | 0.813 | 3.16 | 0.351 | 21.4 | 1.14 | 0.853 | 1.11 | 3.51 | 1.18 | 0.813 | 1.72
C#Cc1cccc(Nc2ncnc3cc(OCCOC)c(OCCOC)cc23)c1 [Erlotinib] + CCCCCCCCCCCC1=C(O)C(=O)C=C(O)C1=O [Embelin] | 0 | 10.4 | 4.82 | 8.08 | 6.85 | 1.02 | 2.42 | 14.6 | 0 | 1.08 | 0.797 | 0.795 | 0.728 | 0.836 | 0.961 | 0.853 | 0.632 | 1.14 | 0 | 5.81 | 0.32 | 2.46 | 0.771 | 0 | 0.526 | 10.1 | 0 | 0 | 5.93 | 1.59 | 1.08 | 1.7 | 0.68 | 2.33 | 10.4 | 0
